# From PMC6857051, “Proliferative regulation of alveolar epithelial type 2 progenitor cells by human Scnn1d gene” (Theranostics, 2019)
# T1: δ802αβγ-ENaC (Homo sapiens, UniProt P51168+P51170)
# T1 construct: We characterized full-length human δ802-ENaC expressed in both Xenopus oocytes and humanized transgenic mice; expressed in transfected cells; host or cells: Xenopus laevis oocytes injected with cRNA (pGEM HE vector)
# T1 sequence (P51168 1-640): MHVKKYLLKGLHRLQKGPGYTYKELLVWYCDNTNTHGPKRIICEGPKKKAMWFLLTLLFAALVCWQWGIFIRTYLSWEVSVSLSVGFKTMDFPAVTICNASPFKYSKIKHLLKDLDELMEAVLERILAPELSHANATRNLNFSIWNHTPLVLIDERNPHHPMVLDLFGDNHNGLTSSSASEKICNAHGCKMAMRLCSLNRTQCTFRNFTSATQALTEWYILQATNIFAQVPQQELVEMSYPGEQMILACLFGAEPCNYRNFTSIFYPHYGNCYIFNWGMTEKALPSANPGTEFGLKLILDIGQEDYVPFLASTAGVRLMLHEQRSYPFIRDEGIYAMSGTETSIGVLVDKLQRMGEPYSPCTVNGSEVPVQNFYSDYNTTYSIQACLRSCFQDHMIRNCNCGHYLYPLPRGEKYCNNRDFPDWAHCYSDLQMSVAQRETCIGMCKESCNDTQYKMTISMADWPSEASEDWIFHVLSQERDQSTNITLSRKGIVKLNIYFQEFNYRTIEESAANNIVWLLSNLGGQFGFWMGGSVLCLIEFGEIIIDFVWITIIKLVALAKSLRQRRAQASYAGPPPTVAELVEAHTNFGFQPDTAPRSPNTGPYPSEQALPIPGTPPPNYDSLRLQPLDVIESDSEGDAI
# T1 sequence (P51170 1-649): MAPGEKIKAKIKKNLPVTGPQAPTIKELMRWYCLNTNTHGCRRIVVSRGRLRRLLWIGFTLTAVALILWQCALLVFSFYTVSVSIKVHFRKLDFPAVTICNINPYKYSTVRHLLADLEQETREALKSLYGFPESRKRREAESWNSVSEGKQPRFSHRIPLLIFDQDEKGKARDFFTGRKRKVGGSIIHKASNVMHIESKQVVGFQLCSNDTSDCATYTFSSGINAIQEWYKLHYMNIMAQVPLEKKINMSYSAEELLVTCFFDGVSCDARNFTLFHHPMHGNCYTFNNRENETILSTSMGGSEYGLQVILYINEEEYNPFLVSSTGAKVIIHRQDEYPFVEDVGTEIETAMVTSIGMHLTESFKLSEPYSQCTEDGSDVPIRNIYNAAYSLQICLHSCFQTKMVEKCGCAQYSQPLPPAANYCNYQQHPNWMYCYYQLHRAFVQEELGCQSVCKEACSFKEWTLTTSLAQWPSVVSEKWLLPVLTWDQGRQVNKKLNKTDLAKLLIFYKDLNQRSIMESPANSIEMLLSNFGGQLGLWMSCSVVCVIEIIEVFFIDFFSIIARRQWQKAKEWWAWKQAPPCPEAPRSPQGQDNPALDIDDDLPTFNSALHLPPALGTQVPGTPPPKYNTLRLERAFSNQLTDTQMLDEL
# Molecular target: T1, δ802αβγ-ENaC
# Assay: Two-electrode voltage clamp of δ802αβγ-ENaC expressed in Xenopus oocytes
# Assay type: cell-based
# Protocol: Cloning, in vitro transcription, and heterologous expression of δ802 ENaC and two-electrode voltage clamping assay. δ802 and other ENaC subunits were generated in human ENaC cDNAs cloned into a pGEM HE vector [4], [76]. cRNAs of human α, β, and γ ENaC were prepared as described previously. The stoichiometry of native ENaC complexes is unclear to date. Based on the studies in the last decade, several models have been proposed for αβγ ENaC channels: 1α1β1γ, 2α1β1γ, 3α3β3γ. Based on the EM structure of human αβγ ENaC [35], the currently acceptable model of human αβγ ENaC complexes is heterotrimeric (1α1β1γ). Thus we microinjected δ802:β:γ in a 1:1:1 subunit ratio. Oocytes were surgically removed from appropriately anesthetized adult female Xenopus laevis (Xenopus Express). Briefly, the ovarian tissue was removed from the frog under anesthesia by tricaine-S (Western Chemicals) through a small incision in the lower abdomen. Ovarian lobes were removed and digested in OR-2 calcium-free medium (in mM: 82.5 NaCl, 2.5 KCl, 1.0 MgCl2, 1.0 Na2HPO4, and 10.0 HEPES, pH 7.5) with the addition of 2 mg/ml collagenase (Roche, Indianapolis). Defolliculated oocytes were injected with ENaC cRNAs into the cytosol (25 ng per oocyte in 50 nl of RNase-free water) and incubated in regular OR-2 medium at 18°C. The two-electrode voltage-clamp technique was used to record whole-cell currents 48 h post injection. Oocytes were impaled with two electrodes filled with 3M KCl, having resistance of 0.5 - 2 MΩ. A TEV-200A voltage-clamp amplifier (Dagan) was used to clamp oocytes with concomitant recording of currents. Two reference electrodes were connected to the bath. The continuously perfused bathing solution was ND-96 medium (in mM: 96.0 NaCl, 1.0 MgCl2, 1.8 CaCl2, 2.5 KCl, and 5.0 HEPES, pH 7.5). Whole-cell currents were recorded as previously reported. Experiments were controlled by pCLAMP 10.7 software (Molecular Devices), and currents at -40 mV, -100 mV, and +80 mV were continuously monitored with data recorded at intervals of 10 sec. Data were sampled at the rate of 200 Hz and filtered at 50 Hz.
molecule,measurement,setting,value
N=C(N)NC(=O)c1nc(Cl)c(N)nc1N [amiloride],inhibition of the α-13 peptide-resistant remaining fraction of current amplitude,"amiloride 10 μM after α-13 300 μM, δαβγ-ENaC, -100 mV",approximately 80%
Ac-LRGTLPHPLQRLR-NH2 [α-13 peptide],fraction of total δαβγ-ENaC activity suppressed,"α-13 300 μM, -100 mV, n=5, Figure 2B",Approximately half
"plasmin: serine protease of the plasmin(ogen) signal pathway for fibrinolysis (protein, UniProt P00747 20-580; P00747 581-810, looked up, Plasmin, serine protease of the plasmin(ogen) signal pathway for fibrinolysis) Plasmin heavy chain A: EPLDDYVNTQGASLFSVTKKQLGAGSIEECAAKCEEDEEFTCRAFQYHSKEQQCVIMAENRKSSIIIRMRDVVLFEKKVYLSECKTGNGKNYRGTMSKTKNGITCQKWSSTSPHRPRFSPATHPSEGLEENYCRNPDNDPQGPWCYTTDPEKRYDYCDILECEEECMHCSGENYDGKISKTMSGLECQAWDSQSPHAHGYIPSKFPNKNLKKNYCRNPDRELRPWCFTTDPNKRWELCDIPRCTTPPPSSGPTYQCLKGTGENYRGNVAVTVSGHTCQHWSAQTPHTHNRTPENFPCKNLDENYCRNPDGKRAPWCHTTNSQVRWEYCKIPSCDSSPVSTEQLAPTAPPELTPVVQDCYHGDGQSYRGTSSTTTTGKKCQSWSSMTPHRHQKTPENYPNAGLTMNYCRNPDADKGPWCFTTDPSVRWEYCNLKKCSGTEASVVAPPPVVLLPDVETPSEEDCMFGNGKGYRGKRATTVTGTPCQDWAAQEPHRHSIFTPETNPRAGLEKNYCRNPDGDVGGPWCYTTNPRKLYDYCDVPQCAAPSFDCGKPQVEPKKCPGR Plasmin light chain B: VVGGCVAHPHSWPWQVSLRTRFGMHFCGGTLISPEWVLTAAHCLEKSPRPSSYKVILGAHQEVNLEPHVQEIEVSRLFLEPTRKDIALLKLSSPAVITDKVIPACLPSPNYVVADRTECFITGWGETQGTFGAGLLKEAQLPVIENKVCNRYEFLNGRVQSTELCAGHLAGGTDSCQGDSGGPLVCFEKDKYILQGVTSWGLGCARPNKPGVYVRVSRFVTWIEGVMRNN",effect of pre-treatment on δ802αβγ-ENaC activity,"oocytes pre-treated, currents at -100 mV, n=5, Figure 3D",potentiated
